Experimental data reported in PMC5856786, “A DHODH inhibitor increases p53 synthesis and enhances tumor cell killing by p53 degradation blockage” (Nature Communications, 2018).
Where a name gives a salt, the structure may show the parent alone.

Biological target: recombinant human DHODH (Homo sapiens, UniProt Q02127)
Test: Endpoint DHODH enzyme assay (coenzyme Q10, DCIP)
Format: biochemical
Design: purchased Prospecbio ENZ-642
Settings: compound at 10 µM; Supplementary Table 5, 20,000 compound library
Protocol: In Supplementary Tables 5 and 6, endpoint assays were performed with 10 nM recombinant human DHODH (#ENZ-642, Prospecbio). The reaction mixture consisted of 624.6 µM DL-dihydroorotic acid, 66.4 µM coenzyme Q10, 66.4 µM 2,6-dichlorophenolindophenol sodium salt (DCIP) (all reagents purchased from Sigma-Aldrich) in enzyme buffer (50 mM Tris-HCl, pH 8.0, 0.1% Triton X-100, 150 mM KCl). Loss in absorbance by DCIP was measured at 595 nm after incubation at RT for 60 min.

recombinant human DHODH, sequence (Q02127 31-395 limits assumed): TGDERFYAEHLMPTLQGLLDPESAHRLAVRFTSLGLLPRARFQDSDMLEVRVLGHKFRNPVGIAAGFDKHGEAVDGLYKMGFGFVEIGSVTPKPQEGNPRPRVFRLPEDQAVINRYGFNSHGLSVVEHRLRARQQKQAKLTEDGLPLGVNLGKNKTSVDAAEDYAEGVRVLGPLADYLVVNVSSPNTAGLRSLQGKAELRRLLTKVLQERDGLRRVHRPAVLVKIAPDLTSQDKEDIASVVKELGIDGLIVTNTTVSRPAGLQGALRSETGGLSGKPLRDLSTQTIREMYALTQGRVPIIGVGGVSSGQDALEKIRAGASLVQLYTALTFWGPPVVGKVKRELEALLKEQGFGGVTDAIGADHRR

In the case of COc1cccc(-c2noc(-c3ccc(N4C[C@H]5CC[C@H]4C5)nc3)n2)c1OC (relative stereo) [compound 75901793, (1S*,4S*)-2-{5-[3-(2,3-dimethoxyphenyl)-1,2,4-oxadiazol-5-yl]-2-pyridinyl}-2-azabicyclo[2.2.1]heptane], the “remaining DHODH activity (%) Average” value was 5.94%.

Point of comparison: O=C(Nc1cc(Cl)ccc1Cl)c1ccc([N+](=O)[O-])o1 [compound 5351342, N-(2,5-dichlorophenyl)-5-nitro-2-furamide], remaining activity at 10 µM 90.4%. Against it:
- O=C(Nc1ccc2ccccc2c1)C12CC3CC(CC(C3)C1)C2 [compound 5135537, N-2-naphthyl-1-adamantanecarboxamide] — lower, 32%
- CCOC(=O)c1c(-c2ccccc2)csc1NC(=O)c1cc(OC)c(OC)c(OC)c1 [compound 5264537, ethyl 4-phenyl-2-[(3,4,5-trimethoxybenzoyl)amino]-3-thiophenecarboxylate] — lower, 82.9%
- CCc1ccc(NC(=O)c2ccc([N+](=O)[O-])o2)cc1 [compound 5351720, N-(4-ethylphenyl)-5-nitro-2-furamide] — lower, 73.5%
- COc1ccc(Cl)cc1NC(=O)c1ccc([N+](=O)[O-])o1 [compound 5356839, N-(5-chloro-2-methoxyphenyl)-5-nitro-2-furamide] — lower, 83.8%

Same assay, conditions: compound at 10 µM; Supplementary Table 6, 30,000 compound library

Point of comparison: COc1ccccc1NC1=CC(=O)CC(c2ccccc2)C1 (stereo not shown) [compound 5220809, 3-[(2-methoxyphenyl)amino]-5-phenyl-2-cyclohexen-1-one], remaining activity at 10 µM 100%. Against it:
- Cc1cccn(CC(=O)c2ccc(-c3ccccc3)cc2)c1=N [compound 5120580, 1-(4-biphenylyl)-2-(2-imino-3-methyl-1(2H)-pyridinyl)ethanone hydrobromide] — lower, 19.2%
- COCCOC(=O)Nc1nc2sc3c(c2s1)CCCC3 [compound 5175570, 2-methoxyethyl 5,6,7,8-tetrahydro[1]benzothieno[2,3-d][1,3]thiazol-2-ylcarbamate] — higher, 101%
- CCN(CC)c1ccc2cc(-c3nc4ccccc4n3C)c(=O)oc2c1 [compound 5213776, 7-(diethylamino)-3-(1-methyl-1H-benzimidazol-2-yl)-2H-chromen-2-one] — lower, 96.8%
- CCN(CC)c1ccc2cc(-c3nc4ccccc4o3)c(=O)oc2c1 [compound 5213777, 3-(1,3-benzoxazol-2-yl)-7-(diethylamino)-2H-chromen-2-one] — lower, 92.1%
- O=C1NC(c2ccc3ccccc3c2)Nc2sc3c(c21)CCCC3 (stereo not shown) [compound 5232020, 2-(2-naphthyl)-2,3,5,6,7,8-hexahydro[1]benzothieno[2,3-d]pyrimidin-4(1H)-one] — lower, 43.5%
- O=C(NN=Cc1ccc(Br)cc1)C1COc2ccccc2O1 (stereo not shown) [compound 5249701, N'-(4-bromobenzylidene)-2,3-dihydro-1,4-benzodioxine-2-carbohydrazide] — the same, 100%
- Brc1ccc2[nH]c3c(c2c1)CCCC3NCCc1ccccc1 (stereo not shown) [compound 5265927, 6-bromo-N-(2-phenylethyl)-2,3,4,9-tetrahydro-1H-carbazol-1-amine hydrochloride] — lower, 55.7%
- COc1ccccc1N1CCN(C(=O)c2ccc(Cl)c([N+](=O)[O-])c2)CC1 [compound 5276937, 1-(4-chloro-3-nitrobenzoyl)-4-(2-methoxyphenyl)piperazine] — lower, 97.5%
- Nc1cccc2c1C(=O)c1cccc(NC(=O)c3ccccc3)c1C2=O [compound 5301107, N-(5-amino-9,10-dioxo-9,10-dihydro-1-anthracenyl)benzamide] — the same, 100%
- Cc1ccc2[nH]c3c(c2c1)CCCC3NC1CCCCC1 (stereo not shown) [compound 5303009, N-cyclohexyl-6-methyl-2,3,4,9-tetrahydro-1H-carbazol-1-amine] — lower, 12.6%
- Cc1ccccc1C=Nc1ccccc1C(N)=O [compound 5320101, 2-[(2-methylbenzylidene)amino]benzamide] — higher, 101%
- NC(=O)c1ccccc1N=Cc1cccc(Cl)c1 [compound 5321611, 2-[(3-chlorobenzylidene)amino]benzamide] — lower, 97.6%
- O=c1c(Cl)c(Cl)cnn1-c1ccc(Cl)c(C(F)(F)F)c1 [compound 5344759, 4,5-dichloro-2-[4-chloro-3-(trifluoromethyl)phenyl]-3(2H)-pyridazinone] — lower, 98.8%
- O=C(NN=Cc1ccc(O)cc1)c1cc(-c2ccccc2)nc2ccccc12 [compound 5347717, N'-(4-hydroxybenzylidene)-2-phenyl-4-quinolinecarbohydrazide] — lower, 8.96%
- COc1ccc(S(=O)(=O)Nc2ccc(I)cc2C)cc1 [compound 5351654, N-(4-iodo-2-methylphenyl)-4-methoxybenzenesulfonamide] — lower, 99.2%
- c1ccc(NN=C2CCc3ccccc3N2)cc1 [compound 5373649, 3,4-dihydro-2(1H)-quinolinone phenylhydrazone hydrochloride] — higher, 101%
- NN=C1CCCc2c1[nH]c1ccc(Br)cc21 [compound 5373779, 6-bromo-2,3,4,9-tetrahydro-1H-carbazol-1-one hydrazone] — lower, 58.2%
- Cc1ccc(C=NNC(=O)c2c(C)nc3ccc(Cl)cn23)cc1 [compound 5378429, 6-chloro-2-methyl-N'-(4-methylbenzylidene)imidazo[1,2-a]pyridine-3-carbohydrazide] — the same, 100%
- Cc1ccc(OCC(=O)NN=Cc2ccc(-c3ccc(Br)cc3)o2)cc1 [compound 5472837, N'-{[5-(4-bromophenyl)-2-furyl]methylene}-2-(4-methylphenoxy)acetohydrazide] — lower, 98.4%
- O=C(NN=Cc1cccc(Oc2ccccc2)c1)c1cccc([N+](=O)[O-])c1 [compound 5545710, 3-nitro-N'-(3-phenoxybenzylidene)benzohydrazide] — lower, 98%
- Cc1ccc(C=NNC(=O)COc2ccccc2Br)c(C)c1 [compound 5554099, 2-(2-bromophenoxy)-N'-(2,4-dimethylbenzylidene)acetohydrazide] — lower, 78.1%
- COc1ccc(CNc2ccc(Br)c(C)c2)cc1Br [compound 5561538, (3-bromo-4-methoxybenzyl)(4-bromo-3-methylphenyl)amine] — lower, 42.5%
- O=c1[nH]c(C=Cc2ccccc2)nc2sc3c(c12)CCCC3 [compound 5625039, 2-(2-phenylvinyl)-5,6,7,8-tetrahydro[1]benzothieno[2,3-d]pyrimidin-4(3H)-one] — lower, 98.4%
- Cn1c2ccccc2n2c(C(O)C(Cl)(Cl)Cl)c(-c3ccccc3)nc12 (stereo not shown) [compound 5650027, 2,2,2-trichloro-1-(9-methyl-2-phenyl-9H-imidazo[1,2-a]benzimidazol-3-yl)ethanol] — lower, 68.4%
- O=C1Nc2ccccc2C1=CNC1CCCc2c1[nH]c1ccccc21 (stereo not shown) [compound 5666718, 3-[(2,3,4,9-tetrahydro-1H-carbazol-1-ylamino)methylene]-1,3-dihydro-2H-indol-2-one] — lower, 48.5%
- O=C(Nc1nc2ccccc2s1)C1c2ccccc2Oc2ccccc21 [compound 5704541, N-1,3-benzothiazol-2-yl-9H-xanthene-9-carboxamide] — lower, 71%
- COc1ccc2c(c1)c(C=Cc1nc3ccccc3c(=O)[nH]1)c(C)n2C [compound 5705453, 2-[2-(5-methoxy-1,2-dimethyl-1H-indol-3-yl)vinyl]-4(3H)-quinazolinone] — lower, 66.1%
- CN(C)c1ccc(C=Cc2nc3ccccc3c(=O)[nH]2)cc1 [compound 5705506, 2-{2-[4-(dimethylamino)phenyl]vinyl}-4(3H)-quinazolinone] — lower, 82.5%
- CCOc1ccc(S(=O)(=O)Nc2cc(Br)c3oc(C)c(C(C)=O)c3c2)cc1 [compound 5754791, N-(3-acetyl-7-bromo-2-methyl-1-benzofuran-5-yl)-4-ethoxybenzenesulfonamide] — lower, 96.8%
- O=[N+]([O-])c1ccc2[nH]c3c(c2c1)CCCC3NC1CCN(CCc2ccccc2)CC1 (stereo not shown) [compound 5781441, 6-nitro-N-[1-(2-phenylethyl)-4-piperidinyl]-2,3,4,9-tetrahydro-1H-carbazol-1-amine] — lower, 59.6%
- COc1ccc(CC(C)NC2CCCc3c2[nH]c2ccc([N+](=O)[O-])cc32)cc1OC (stereo not shown) [compound 5781442, N-[2-(3,4-dimethoxyphenyl)-1-methylethyl]-6-nitro-2,3,4,9-tetrahydro-1H-carbazol-1-amine] — lower, 78.3%

Point of comparison: O=C1C(O)=C(c2ccc(-c3ccccc3)cc2)C(=O)c2ccccc21 [compound 5248918, 2-(4-biphenylyl)-3-hydroxynaphthoquinone], “remaining DHODH activity (%) Average” value -1.54%. Against it:
- Oc1ccccc1C=Nc1ccc2cc3ccc(N=Cc4ccccc4O)cc3nc2c1 [compound 5267938, 2,2'-[3,6-acridinediylbis(nitrilomethylylidene)]diphenol] — higher, 98.57%
- COc1ccccc1N1C(=O)C(=C2C(=O)Nc3ccc(Br)cc32)SC1=S [compound 5284467, 5-bromo-3-[3-(2-methoxyphenyl)-4-oxo-2-thioxo-1,3-thiazolidin-5-ylidene]-1,3-dihydro-2H-indol-2-one] — higher, 98.93%
- O=C(NN=CC(Br)=Cc1ccccc1)c1n[nH]c2c1CCC2 [compound 5313702, N'-(2-bromo-3-phenyl-2-propen-1-ylidene)-1,4,5,6-tetrahydrocyclopenta[c]pyrazole-3-carbohydrazide] — higher, 92.49%
- Cc1ccc2[nH]c3c(c2c1)CCCC3NC=C1C(=O)CC(C)(C)CC1=O (stereo not shown) [compound 5666613, 5,5-dimethyl-2-{[(6-methyl-2,3,4,9-tetrahydro-1H-carbazol-1-yl)amino]methylene}-1,3-cyclohexanedione] — higher, 92.20%
